Laboratory results reported in patent EP2703003A1, “A pomegranate extract and compositions containing pomegranate polyphenols for treating or preventing diseases or physiopathological conditions associated with an excessive gene expression and/or physiological activity of interleukin-6” (Probelte Biotecnologia S.L., priority 2012, dated 2014).
Read-outs that look alike come from different tables or passages of the source.

Legend:
[1] = tested on: dermal papilla hair follicle cells; conditions: 24 hours, 270 picog/mL at dose 0
Procedure: In another independent study, in vitro cultures of dermal papilla hair follicle cells grown using DMEM as a culture medium were seeded at a density of 1.5 x 10^5 cells per 50 mm of plate surface and incubated overnight. Then 3 consecutive washes with PBS were performed and DMEM culture medium supplemented with variables amounts of DHT was added to each of the cultures; specifically three doses were tested: 0, 25 and 100 nanoM. The culture medium was sampled after 24 hours to measure the concentration of interleukin-6 by means of ELISA.

[2] = side effect, background statement; cited from earlier work

Compound | mean concentration of interleukin-6 in the culture media ([1]; 25 nanoM) | mean concentration of interleukin-6 in the culture media ([1]; 100 nanoM) | itchy scalp [2]
C[C@]12CCC(=O)C[C@@H]1CC[C@@H]1[C@@H]2CC[C@]2(C)[C@@H](O)CC[C@@H]12 [DHT, 5-dihydrotestosterone] | 1270 picog/mL | 2190 picog/mL | –
Nc1cc(N2CCCCC2)nc(N)[n+]1[O-] [Minoxidil] | – | – | 1.5 % of patients
